These results are taken from US3985758A, “1,4-Dihydropyridine derivatives” (Yamanouchi Pharmaceutical Co., Ltd., priority 1973, dated 1976).

A short description of data set [1]: in vivo. The conditions noted are these: mouse, in vivo, iv. The method, then:
(§1) LD50 was determined by using mice.
(§2) 2. Acute toxicity in mice
(§3) Male ICR weighing 25 to 32 g were used. The test compounds were injected into tail vein and LD 50 values were determined.

For data set [2] the following is noted: cited from earlier work.
In data set [3] the test system is vertebral and femoral blood flow. The data set can be described thus: Vertebral and femoral blood flow in anesthetized dogs. The conditions noted are these: 0.01 mg/kg i.v. (0.01 or 0.03 mg/kg); for Blood pressure change (Δ mmHg): femoral artery; for Separation ratio (percent increase of vertebral blood flow / that of femoral blood flow): significance vs SKF 24260. The class given is in vivo, mongrel dog.
Description: Mongrel dogs of both sexes weighing from 12 to 27 kg were anesthetized with sodium pentobarbitol (30 mg/kg i.v.). In all experiments, trachea was cannulated and the animals were artificially ventilated with room air. Blood pressure in cannulated femoral artery was measured by means of a pressure transducer (Nihon Kohden, MPU 0.5). Vertebral and femoral blood flow were measured by a noncannulating electromagnetic flowmeter (Nihon Kohden, MF-25) positioned around the vessels. Recordings were made on an ink-writing polygraph (Nihon Kohden, RM-150 or RM-85). The test compounds were injected at a dose of 0.01 mg/kg into femoral vein.

The conditions of data set [4]: cited from earlier work. This is another data set of the same source.
Data set [5] in a line: Solubility in water at 25° C. The class given is physicochemical.
A further data set relates to mice. The data set can be described thus: in vivo. To be noted: i.v.; mice. The method, then: as §1, §2, §3
A short description of data set [6]: in vivo. The conditions noted are these: dog, iv.
A further data set has as its system vertebral artery. The data set can be described thus: Direct vasodilating effect on vertebral artery, constant volume perfusion. The class given is in vivo, mongrel dog. The conditions noted are these: intra-arterial; for Vasodilation ED50, vertebral artery: ±SE, maximum response to papaverine 3000 μg i.a. = 100%. From the text: (§4) Heparin (1000 μ/Kg, i.v.) was used as an anticoagulant. The methods for perfusion of each artery were as following: 1) For the vertebral artery, the arterial blood led from the left common carotid artery was collected by the tygon tubing and perfused by the Sigma-motor pump (Mippleport N.Y. T-8) into the right vertebral artery. 2) For the femoral artery, the arterial blood led from the proximal femoral artery was perfused by the Sigma-motor pump into the distal femoral artery. […] All drugs were given into a rubber tube connected close to the each arterial cannula by a microinjector (Jintan Terumo, NSN-100).

In another data set the test system is guinea-pig ileum. The data set can be described thus: Spasmolytic activity in isolated guinea-pig ileum (Magnus apparatus). The conditions noted are these: Cavia porcellus, ±S.E. The method, then: Methods: Isolated guinea-pig ileum was suspended in Tyrodes solution by use of Magnus apparatus and the movements of the muscle were recorded in a kymograph by an isotonic lever.

In another data set the test system is femoral artery. As to the kind of experiment: Direct vasodilating effect on femoral artery, constant volume perfusion. The class given is in vivo, mongrel dog. To be noted: intra-arterial; ±SE; maximum response to papaverine 3000 μg i.a. = 100%.
Description: For the analysis of the selective effect on vasculature by the drugs, direct effect on cerebral (vertebral artery) and peripheral (femoral artery) vascular bed were studied by the method of the constant volume perfusion.
as §4

Broadly, the LD50 is the dose expected to kill half of the subjects tested. For orientation: solubility means the dissolved amount per volume that the medium holds.

Values after ≈ are worked out from the molar mass of the structure shown. Counter-ions that a name gives are not always drawn. Like-named read-outs stand apart in the source and are kept apart here.

In the data set “in vivo [1]”, `CCOC(=O)C1=C(C)NC(C)=C(C(=O)OCC)C1c1ccccc1C(F)(F)F` [SKF 24260, 3,5-dicarbethoxy-1,4-dihydro-2,6-dimethyl-4-(2-trifluoromethylphenyl) pyridine, reference compound] registered an LD50 of 0.8 mg/kg. In [2] (U.S. Pat. No. 3,511,837), the Hypotensive activity result was “shows hypotensive activity”. In addition, in [3], the “Femoral blood flow (FBF %)” value turned out to be 165 ± 40%, the “Vertebral blood flow (VBF Δ %)” value is listed as 144 ± 17.7 Δ %, the “Blood pressure change (Δ mmHg)” value was -44 ± 4.8 Δ mmHg and the “Separation ratio (percent increase of vertebral blood flow / that of femoral blood flow)” value amounted to 0.93 ± 0.11. Besides, in data set [4], the “Water-solubility (in words)” value is on record as “very poorly water-soluble”. In addition, in data set [5] (known compounds, 25° C), the “pH (of solubility determination)” value came to 5.40. In [5] (known compounds, 25° C, at the given pH, read-out: Solubility), the solubility was found to be 10 µg/mL (≈ 25.2 µM). For the same molecule, the solubility in [5] (known compounds, pH 4.00, 25° C, read-out: Solubility at pH 4.00) came out at 10 µg/mL (≈ 25.2 µM).

As to `COC(=O)C1=C(C)NC(C)=C(C(=O)OCCN(C)Cc2ccccc2)C1c1cccc([N+](=O)[O-])c1` (stereo not drawn) [Example 2, 2,6-dimethyl-4-(3'-nitrophenyl)-1,4-dihydropyridine-3,5-dicarboxylic acid 3-β-(N-benzyl-N-methylamino)ethyl ester 5-methyl ester hydrochloride], the figures for the LD50 in the data set on mice, in “in vivo [1]” and in “in vivo [6]” were 20.7 mg/kg, 20.7 mg/kg and 6.1 mg/kg, respectively. Further, the “Heart rate (Δbeats/min.±SE)” value was 4±1.3 Δbeats/min in the data set on anesthetized dogs (0.0003 mg/Kg i.v.), 12±2.2 Δbeats/min with anesthetized dogs (0.001 mg/Kg i.v.), 18±2.0 Δbeats/min in the data set with anesthetized dogs (0.003 mg/Kg i.v.) and 25±5.3 Δbeats/min in the data set with anesthetized dogs (0.01 mg/Kg i.v.). The “Mean blood pressure (ΔmmHg±SE)” value in the data set on anesthetized dogs (0.0003 mg/Kg i.v.) is -1±0.6 ΔmmHg; with anesthetized dogs (0.001 mg/Kg i.v.), -7±1.5 ΔmmHg; in the data set on anesthetized dogs (0.003 mg/Kg i.v.) it was -14±2.2 ΔmmHg; in the data set on anesthetized dogs (0.01 mg/Kg i.v.), -29±3.6 ΔmmHg. In addition, the “Vertebral blood flow (Δ%±SE)” value in the data set with anesthetized dogs (0.0003 mg/Kg i.v.) was 27±4.4 Δ%; with anesthetized dogs (0.001 mg/Kg i.v.) it was 61±9.5 Δ%; with anesthetized dogs (0.003 mg/Kg i.v.), 132±13.8 Δ%; with anesthetized dogs (0.01 mg/Kg i.v.), 200±27.3 Δ%. Moreover, the “Femoral blood flow (FBF %)” value in [3] worked out at 51 ± 5.8%. Moreover, in data set [3], the “Vertebral blood flow (VBF Δ %)” value is recorded as 200 ± 27.3 Δ %. In data set [3], the “Blood pressure change (Δ mmHg)” value is listed as -29 ± 3.6 Δ mmHg. For the same molecule, the “Separation ratio (percent increase of vertebral blood flow / that of femoral blood flow)” value in data set [3] stood at 4.19 ± 0.69. For the same molecule, the “Selectivity ratio (ED50 in femoral artery/ED50 in vertebral artery)” value in the data set with vertebral artery (anesthetized dogs) came out at 1.30. Further, the “Vasodilation ED50, vertebral artery” value with vertebral artery was determined as 0.66 ± 0.20 µg. For the same molecule, the “pH (of solubility determination)” value in data set [5] (compounds of the present invention, 25° C) was determined as 3.92. In data set [5] (compounds of the present invention, 25° C, at the given pH, read-out: Solubility), the solubility stood at 4900 µg/mL. The IC50 was 5.2 ng/mL in the data set on guinea-pig ileum (read-out: Spasmolytic activity, 50% inhibition of contractile response, Acetylchloline 10^-7 g/ml); 1.9 ng/mL with guinea-pig ileum (read-out: Spasmolytic activity, 50% inhibition of contractile response, BaCl2 2×10^-4 g/ml); 1.8 ng/mL in the data set with guinea-pig ileum (read-out: Spasmolytic activity, 50% inhibition of contractile response, Histamine 10^-7 g/ml). Further, the “Vasodilation ED50, femoral artery” value in the data set on femoral artery amounted to 0.86 ± 0.11 µg.

As to `COC(=O)C1=C(C)NC(C)=C(C(=O)OC)C1c1ccccc1[N+](=O)[O-]` [Nifedipine, 4-(2'-nitrophenyl)-2,6-dimethyl-1,4-dihydropyridine-3,5-dicarboxylic acid dimethyl ester], in the data set on anesthetized dogs (0.001 mg/Kg i.v.), the “Heart rate (Δbeats/min.±SE)” value is given as 10±3.5 Δbeats/min, the “Mean blood pressure (ΔmmHg±SE)” value is -10±1.6 ΔmmHg and the “Vertebral blood flow (Δ%±SE)” value is given as 47±13.5 Δ%. Moreover, in the data set with anesthetized dogs (0.003 mg/Kg i.v.), the “Heart rate (Δbeats/min.±SE)” value is 18±3.2 Δbeats/min, the “Mean blood pressure (ΔmmHg±SE)” value is -24±5.9 ΔmmHg and the “Vertebral blood flow (Δ%±SE)” value is 104±25.8 Δ%. Further, in the data set with anesthetized dogs (0.01 mg/Kg i.v.), the “Heart rate (Δbeats/min.±SE)” value is on record as 17±4.0 Δbeats/min, the “Mean blood pressure (ΔmmHg±SE)” value was -39±3.2 ΔmmHg and the “Vertebral blood flow (Δ%±SE)” value is 135±28.8 Δ%. The “Coronary vasodilator activity and spasmolytic activity” value in data set [2] (Naturwissenschaften 58, (11)578(1971)) was “much excellent coronary vasodilator activity and spasmolytic activity”. Besides, in [3], the “Femoral blood flow (FBF %)” value amounted to 109 ± 34.1%, the “Vertebral blood flow (VBF Δ %)” value is listed as 135 ± 28.8 Δ % and the “Blood pressure change (Δ mmHg)” value is given as -39 ± 3.2 Δ mmHg. Moreover, the “Vasodilation ED50, vertebral artery” value in the data set on vertebral artery was found to be 0.74 ± 0.15 µg. In the data set on femoral artery, the “Vasodilation ED50, femoral artery” value is 0.37 ± 0.11 µg.
